Patent publication US8349837B2, “Pharmaceutical composition comprising racemic aminopterin” (Aminopterin, LLC, priority 2009, dated 2013)

Assay: Pharmacokinetics and oral absorption in Beagle dogs
Settings: for Mean Plasma D-isomer: Beagle dogs N=10, oral capsule by gastric placement, 1 mg D-isomer
Description: Ten (N=10) Beagle dogs were enrolled in a pharmacokinetic study to examine the oral absorption of 1 tablet of the pure L-isomer tablet formulation (batch 116I0604), 1 mg of the D-isomer admixed with 99 mg microcrystalline cellulose, and 4 tablets of the racemic tablet formulation (batch 157I0907). Each formulation was encapsulated in a hard gelatin capsule and administered by direct gastric placement. Dosing of each formulation was separated by a 7 day washout period. The mean body weight of the ten dogs was 11.3±1.7 (SD) kilograms.
For pharmacokinetic analysis, venous blood samples with EDTA as anticoagulant were taken before each dosing and at 0.5, 1, 1.5, 2, 3, 6, 9 and 12 hours after each dosing. Samples were centrifuged, and the plasma collected and frozen for analysis. There was no urine sampling in this study. Aminopterin in plasma samples was quantitated by an achiral LC/MS assay (Advion Biosciences, Ithaca, N.Y.). The lower limit of quantitation (LLOQ) of the assay was 0.5 ng/ml or 1.2 nM. The amount of L-isomer and D-isomer in plasma samples from animals dosed with the racemate was determined using a chiral LC/MS assay.

[1] = Beagle dogs, oral, isomers given separately

SMILES	Mean Plasma D-isomer (collection time 0.0 hr (before dosing))	Mean Plasma D-isomer (collection time 0.5 hr)	Mean Plasma D-isomer (collection time 1.0 hr)	Mean Plasma D-isomer (collection time 1.5 hr)	Mean Plasma D-isomer (collection time 2.0 hr)	Mean Plasma D-isomer (collection time 3.0 hr)	Mean Plasma D-isomer (collection time 6.0 hr)	Mean Plasma D-isomer (collection time 9.0 hr)	Mean Plasma D-isomer (collection time 12.0 hr)	oral absorption when given separately [1]	systemic exposure relative to that of the L-isomer (AUC ratio) [1]
Nc1nc(N)c2nc(CNc3ccc(C(=O)N[C@H](CCC(=O)O)C(=O)O)cc3)cnc2n1 (single isomer, unassigned) [D-isomer]	0.0000 µM	0.0050 µM	0.0117 µM	0.0150 µM	0.0152 µM	0.0106 µM	0.0034 µM	0.0023 µM	0.0026 µM	efficiently absorbed	approximately 30%
Nc1nc(N)c2nc(CNc3ccc(C(=O)N[C@@H](CCC(=O)O)C(=O)O)cc3)cnc2n1 [L-isomer]										efficiently absorbed	
